Assay results from patent US5449672A, “Alkylaminoalkylpyrrolidinylthiocarbapenem derivatives” (Banyu Pharmaceutical Co., Ltd., priority 1991, dated 1995).
≈ marks a conversion by molar mass, not a printed value. Read-outs that look alike come from different tables or passages of the source.

Key:
[1] = system: gram positive bacteria and gram negative bacteria; settings: literature, in words; cited from earlier work
[2] = system: DHP-I (renal dehydropeptidase I); assay: DHP-I susceptibility, method by Kropp et al.; type: in vitro ADME; settings: ratio to imipenem (=1.0); the smaller the value, the higher the stability
Description: (§1) One platinum loopful of each test microorganism incubated overnight in Mueller Hinton broth, was inoculated to Mueller Hinton agar (inoculum size: 10^6 CFU/ml). Such culture media contained antibacterial agents in various concentrations. After incubation at 37° C. for 16 hours, the minimum inhibitory concentrations (MIC: μg/ml) were measured. Further, the DHP-I susceptibility was quantitatively analyzed by the method by Kropp et al. (Antimicrob. Agents Chemother., vol. 22, p. 62-70 (1982)), whereby the smaller the numerical value representing the ratio to imipenem (=1.0), the higher the stability.
(§2) The minimum inhibitory concentrations and the DHP-I susceptibility of the compounds of the present invention were compared with imipenem and the compound of REFERENCE EXAMPLE 4.

β-lactamase = settings: literature, in words; cited from earlier work
P. aeruginosa MB5178 = assay: Minimum inhibitory concentration (MIC), agar plate dilution method, P. aeruginosa MB5178; type: cell-based; settings: Pseudomonas aeruginosa, read-out: Minimum Inhibitory Concentration (MIC)
Description: as §1, §2

[3] = cited from earlier work
P. aeruginosa MB5002 = assay: Minimum inhibitory concentration (MIC), agar plate dilution method, P. aeruginosa MB5002; type: cell-based; settings: Pseudomonas aeruginosa, read-out: Minimum Inhibitory Concentration (MIC)
Description: as §1, §2

[4] = due to the decomposition products; cited from earlier work
DHP-I = settings: in vivo; human kidney for imipenem; cited from earlier work
[5] = system: Methicillin resistant Staphylococcus aureus and resistant Pseudomonas aeruginosa; settings: prior-art compounds; highly methicillin resistant S. aureus and resistant P. aeruginosa; cited from earlier work
[6] = in words; cited from earlier work
[7] = P. aeruginosa MB5178, Mueller Hinton agar, inoculum 10^6 CFU/ml, 37° C., 16 hours
[8] = P. aeruginosa MB5002, Mueller Hinton agar, inoculum 10^6 CFU/ml, 37° C., 16 hours

| DHP-I susceptibility [2] | MIC (P. aeruginosa MB5178; [7]) [µg/mL] | MIC (P. aeruginosa MB5002; [8]) [µg/mL] | Compound | antibacterial activities [1] | decomposition by renal dehydropeptidase I (DHP-I) (DHP-I) | further results |
| --- | --- | --- | --- | --- | --- | --- |
| 0.7 | 12.5 (≈ 32.6 µM) | 6.25 (≈ 16.3 µM) | CC(=O)NC[C@@H]1C[C@H](SC2=C(C(=O)O)N3C(=O)[C@H]([C@@H](C)O)[C@H]3[C@H]2C)CN1 [compound 1, (1R,5S,6S)-2-[(2S,4S)-2-(Acetylaminomethyl)pyrrolidin-4-ylthio]-6-[(R)-1-hydroxyethyl]-1-methyl-1-carbapen-2-em-3-carboxylic Acid] |  |  |  |
|  |  |  | C[C@@H](O)[C@H]1C(=O)N2C(C(=O)O)=C(SCCN)C[C@H]12 [Thienamycin] | strong antibacterial activities over a wide range against gram positive bacteria and gram negative bacteria | likely to be decomposed by a certain enzyme in vivo such as renal dehydropeptidase I | chemical stability ([3]; literature, in words): chemically unstable; recovery rate in the urine [6]: low |
| 0.07 | 3.13 | 0.78 | CNCCC[C@@H]1C[C@H](SC2=C(C(=O)O)N3C(=O)[C@H]([C@@H](C)O)[C@H]3[C@H]2C)CN1.Cl [Example 3, (1R,5S,6S)-6-[(R)-1-Hydroxyethyl]-1-methyl-2-[(2R,4S)-2-[3-(methylamino)propyl]pyrrolidin-4-ylthio]-1-carbapen-2-em-3-carboxylic acid Monohydrochloride] |  |  |  |
| < 0.05 | 3.13 (≈ 8.47 µM) | 0.78 (≈ 2.11 µM) | CNCC[C@@H]1C[C@H](SC2=C(C(=O)O)N3C(=O)[C@H]([C@@H](C)O)[C@H]3[C@H]2C)CN1 [Example 1, (1R,5S,6S)-6-[(R)-1-Hydroxyethyl]-1-methyl-2-[(2R,4S)-2-[2-(methylamino)ethyl]pyrrolidin-4-ylthio]-1-carbapen-2-em-3-carboxylic Acid] |  |  |  |

| Compound | DHP-I susceptibility [2] | MIC (P. aeruginosa MB5178; [7]) [µg/mL] | MIC (P. aeruginosa MB5002; [8]) [µg/mL] | antibacterial activities [1] | decomposition by renal dehydropeptidase I (DHP-I) (DHP-I) | further results |
| --- | --- | --- | --- | --- | --- | --- |
| C[C@@H](O)[C@H]1C(=O)N2C(C(=O)O)=C(SCCN=CN)C[C@H]12 [Imipenem, (5R,6S,8R)-3-[[2-(formimidoylamino)ethyl]thio]-6-(1-hydroxyethyl)-7-oxo-1-azabicyclo[3.2.0]hept-2-en-2-carboxylic acid monohydrate] | 1.0 |  |  | antibacterial activities of an equal or higher level than thienamycin against various types of bacteria | likely to be decomposed by DHP-I in the human kidney | β-lactamase resistance (β-lactamase): has β-lactamase resistance; MIC (P. aeruginosa MB5178; MB5178, 16 h): 25 µg/mL; stability in the solid form or in an aqueous solution ([3]; relative to thienamycin): remarkably improved over thienamycin; MIC (P. aeruginosa MB5002; MB5002, 16 h): 1.56 µg/mL; toxicity against the kidney [4]: presents toxicity against the kidney due to the decomposition products; treating effects / antibacterial activities against resistant bacteria [5]: does not show adequate treating effects against these resistant bacteria |
